# Columns and labels:
# [1] = system: retinoic acid receptor (RAR); assay: Trypsin digestion of translated RAR; assay type: biochemical; conditions: preincubated with 2 μM retinoic acid
# Description: (§1) To 5 μl of hormone-treated (10 minutes at room temperature (PR) or 37° C. (ER)) labeled translation mix, 0.5 μl of protease (diluted in water) was added followed by incubation for 10 minutes. The rate of digestion is dependent on the concentration of enzyme used. ER translation mixes were made 10 mM in MgCl2 before hormone addition. 0.5 μl was removed and mixed with 10 μl of denaturing loading dye, boiled for 5 minutes, and immediately loaded on 1.5 mm thick 0.1% (w/v) sodium dodecyl sulphate-12% (w/v) polyacrylamide gels. Denaturing gel electrophoresis was performed as described in Promega's translation handbook. Following electrophoresis, gels were treated with 30% (v/v) methanol/10% (v/v) acetic acid, then with EN^3 HANCE, and were vacuum dried at 60° C. for 30 minutes, followed by 80° C. for 45 minutes. Autoradiography was performed overnight. Promega's rabbit reticulocyte lysates average a protein concentration of 130 mg/ml; 5 μg of protease per ml of translation mix is therefore roughly equivalent to 60 ng of protease per mg of protein.
# (§2) The receptors were translated as a polypeptides of predicted molecular weight (FIG. 7A and 7B, lane 1). Trypsin digestion of RAR and TR which had been preincubated with 2 μM retinoic acid and 10^-T MT3 produced a resistant 31 kd fragment, which was not detectable following digestion of carrier-treated receptor (compare lanes 2-6 with lanes 8-12). […]
# A-form human PR [2] = assay: Electrophoretic mobility shift assay, in vitro translated PR binding to a PRE; assay type: biochemical; conditions: 100 nM ligand (progesterone also 10 nM)
# Description: (§3) EMSAs were carried out as previously described (Bagchi et al., Mol. Cell. Biol., 2:1221, 1988), except that 100 ng (PR) or 1 μg (ER) of Poly(dI-dC)(dI-dC) were used as competitor and 10 mM MgCl2 was used when testing estrogen receptor. 4 μl of unlabeled translation mix were used per 10 μl reaction. Proteins were incubated with ligand at room temperature (PR) or 37° C. (ER) for 10 minutes, followed by the addition of DNA and further incubation for 10 minutes. For the experiment in FIG. 2, all incubations were carried out at 30° C. in the presence of 300 U/ml calf intestinal alkaline phosphatase. All mixing was done by gentle vortexing. DNA-protein complexes were resolved on 4% (w/v) gels.
# Hormone-dependent activity of the in vitro synthesized PR was measured, i.e., its ability to bind DNA specifically was examined by electrophoretic mobility shift assay (EMSA) (FIG. 1A). Unlabeled receptors were incubated with a ^32 P-end-labeled oligonucleotide equivalent to a PRE from the tyrosine aminotransferase gene upstream region.
# A-form human PR [3] = assay: Limited proteolytic digestion of translated PR; assay type: biochemical; conditions: 100 nM ligand; for protease-resistant PR fragment: chymotrypsin, trypsin or subtilisin digestion; for proteolytic fragment pattern / conformational change of PR: trypsin (Org compounds) or subtilisin (R5020)
# Description: as §1
# Proteolytic analysis is a powerful method for analyzing conformation changes within proteins. [^35 S]methionine-labeled PR was treated with progesterone, Ru38486 or ethanol, then digested for a short period of time with different amounts of various proteases. Digestion products were analyzed by denaturing gel electrophoresis.
# hPR = biological target: T1, hPR (Homo sapiens, UniProt P06401); assay: Bandshift analysis of T47D extract hPR with C-262 antibody supershift; assay type: biochemical; conditions: T47D extracts; 100 nM ligand
# T1 sequence (P06401 1-933): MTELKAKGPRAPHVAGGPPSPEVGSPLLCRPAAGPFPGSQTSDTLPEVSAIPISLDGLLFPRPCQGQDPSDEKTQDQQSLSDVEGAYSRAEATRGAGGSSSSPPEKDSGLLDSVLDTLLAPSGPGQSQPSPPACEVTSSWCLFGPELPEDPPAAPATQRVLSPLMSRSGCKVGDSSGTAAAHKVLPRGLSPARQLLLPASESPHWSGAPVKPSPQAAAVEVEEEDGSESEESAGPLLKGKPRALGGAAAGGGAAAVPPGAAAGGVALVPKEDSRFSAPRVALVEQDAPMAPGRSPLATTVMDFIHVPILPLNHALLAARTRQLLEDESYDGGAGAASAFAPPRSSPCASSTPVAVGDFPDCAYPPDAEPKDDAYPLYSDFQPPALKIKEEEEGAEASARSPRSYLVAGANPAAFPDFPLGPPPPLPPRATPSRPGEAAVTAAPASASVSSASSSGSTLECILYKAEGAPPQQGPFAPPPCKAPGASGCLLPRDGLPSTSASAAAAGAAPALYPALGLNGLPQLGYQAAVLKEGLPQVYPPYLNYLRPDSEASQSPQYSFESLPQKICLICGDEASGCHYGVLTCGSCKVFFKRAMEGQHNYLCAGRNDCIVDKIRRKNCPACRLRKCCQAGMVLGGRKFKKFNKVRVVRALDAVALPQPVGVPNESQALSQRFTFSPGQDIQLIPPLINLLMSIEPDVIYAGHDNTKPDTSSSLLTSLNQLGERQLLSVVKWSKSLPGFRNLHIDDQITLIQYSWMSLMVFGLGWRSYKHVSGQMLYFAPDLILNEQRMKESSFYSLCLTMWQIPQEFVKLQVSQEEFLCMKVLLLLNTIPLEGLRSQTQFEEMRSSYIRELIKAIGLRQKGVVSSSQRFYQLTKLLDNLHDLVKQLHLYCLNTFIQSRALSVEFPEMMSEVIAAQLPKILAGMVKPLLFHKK
# Description: In panel (A), T47D extracts were treated in vitro with 100 nM progesterone (P, lanes 2, 5, 8, 11 and 13), RU486 (R, lanes 3, 6 and 9) or with an equal amount (0.01% (v/v)) of ethanol carrier (-, lanes 1, 4, 7, 10, 12 and 14), followed by the addition of N-terminal-binding (AB52, lanes 7 to 9 and 14) or C-terminal-binding (C-262, lanes 4 to 13) anti-hPR monoclonal antibodies, or a control anti-cPR antibody (PR22, lanes 1 to 3). […] Binding to a PRE was assessed by bandshift analysis. The positions of specific DNA-protein complexes and of free probe are indicated. (B) The effect of ligands on C-262 supershifting was tested as in (A), except that extracts were treated with 100 nM Org31376 (OI, lanes 3, 7 and 11), Org31806 (OII, lanes 4, 8 and 12) or progesterone (P, lanes 2, 6 and 10).
# A monoclonal antibody (C-262), which was raised against the C-terminal 14 amino acids of PR was used to determine if there was a difference in the accessibility of the epitope when the receptor was bound to an agonist or an antagonist.
# The epitope recognized by C-262 antibody was the C-terminus of the receptor. A peptide corresponding to the C-terminal 14 amino acid tail was preincubated with the antibody prior to addition to the band-shift reaction.
# progesterone action = conditions: cited from earlier work
# thyroxine receptor (TR) = assay: Trypsin digestion of translated TR; assay type: biochemical; conditions: preincubated with 10^-T MT3
# Description: as §1, §2
# Human ER = biological target: T2, Human ER (Homo sapiens, UniProt P03372); assay: Electrophoretic mobility shift assay, translated ER binding to an ERE; assay type: biochemical; conditions: 100 nM ligand; 10 mM MgCl2, 37° C.
# T2 sequence (P03372 1-595): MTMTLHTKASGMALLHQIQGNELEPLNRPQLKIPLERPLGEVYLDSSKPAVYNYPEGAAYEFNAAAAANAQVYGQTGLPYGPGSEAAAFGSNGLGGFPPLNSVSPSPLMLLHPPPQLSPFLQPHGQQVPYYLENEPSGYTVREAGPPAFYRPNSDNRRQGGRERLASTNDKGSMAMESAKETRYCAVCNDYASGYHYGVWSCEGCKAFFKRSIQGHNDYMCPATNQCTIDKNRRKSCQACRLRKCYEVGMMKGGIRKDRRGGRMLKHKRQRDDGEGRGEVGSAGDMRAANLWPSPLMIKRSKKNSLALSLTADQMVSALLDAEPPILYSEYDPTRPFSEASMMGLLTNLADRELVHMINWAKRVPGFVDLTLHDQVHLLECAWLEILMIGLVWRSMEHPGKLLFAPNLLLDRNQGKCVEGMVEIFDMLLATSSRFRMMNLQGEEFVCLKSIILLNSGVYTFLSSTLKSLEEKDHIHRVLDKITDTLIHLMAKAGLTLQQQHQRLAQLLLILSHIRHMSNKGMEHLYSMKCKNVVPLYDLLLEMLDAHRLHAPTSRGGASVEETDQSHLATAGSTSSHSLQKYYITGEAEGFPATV
# Description: as §3
# ER = conditions: cited from earlier work
molecule,measurement,setting,value
CC1=C(/C=C/C(C)=C/C=C/C(C)=C/C(=O)O)C(C)(C)CCC1 [retinoic acid],trypsin-resistant RAR fragment,[1],31 kd
CC#C[C@]1(O)CC[C@H]2[C@@H]3CCC4=CC(=O)CCC4=C3[C@@H](c3ccc(N(C)C)cc3)C[C@@]21C [Ru38486],"binding of translated PR to a PRE (specific DNA-protein complex, EMSA)",A-form human PR [2],promoted binding to the PRE that was at least as strong as that induced by an equal concentration (100 nM) of progesterone
same,protease-resistant PR fragment,A-form human PR [3],27 kd
same,recognition (supershift) of ligand-bound hPR-DNA complex by C-262 antibody,hPR,exposed
CCC(=O)[C@@]1(C)CC[C@H]2[C@@H]3CCC4=CC(=O)CCC4=C3CC[C@@]21C [R5020],proteolytic fragment pattern / conformational change of PR,A-form human PR [3],R5020 and progesterone induced the same conformational changes
"C[C@]12CC[C@@H]3c4ccc(O)cc4CC[C@H]3[C@@H]1CC[C@@H]2O [estradiol, 17β-estradiol]","binding of translated PR to a PRE (specific DNA-protein complex, EMSA)",A-form human PR [2],failed to induce a specific complex
C[C@H]1CC2=CC(=O)CCC2=C2[C@@H]1[C@@H]1CC[C@@]3(CCCO3)[C@@]1(C)C[C@@H]2c1ccc(N(C)C)cc1 [Org 31806],"binding of translated PR to a PRE (specific DNA-protein complex, EMSA)",A-form human PR [2],induce binding of translated PR to a PRE in vitro
same,proteolytic fragment pattern / conformational change of PR,A-form human PR [3],indistinguishable from that induced by Ru38486
same,recognition (supershift) of ligand-bound hPR-DNA complex by C-262 antibody,hPR,resulted in supershifting of PR-DNA complexes
same,antagonism of progesterone action in vivo,progesterone action,strongly antagonize progesterone action in vivo
CC(=O)[C@H]1CC[C@H]2[C@@H]3CCC4=CC(=O)CC[C@]4(C)[C@H]3CC[C@]12C [progesterone],"binding of translated PR to a PRE (specific DNA-protein complex, EMSA)",A-form human PR [2],Specific DNA-protein complexes were obtained
same,protease-resistant PR fragment,A-form human PR [3],30 kd
same,recognition (supershift) of ligand-bound hPR-DNA complex by C-262 antibody,hPR,almost totally prevented recognition of the receptor by C-262 antibody
thyroxine [T3],trypsin-resistant TR fragment,thyroxine receptor (TR),31 kd
"CCCCN(C)C(=O)CCCCCCCCCC[C@@H]1Cc2cc(O)ccc2[C@H]2CC[C@]3(C)[C@@H](O)CC[C@H]3[C@H]12 [ICI 164,384]",binding of translated ER to an ERE (EMSA),Human ER,induces high affinity DNA binding
same,agonistic activity,ER,no detectable agonistic activity

# — patent publication US5759785A, “Method of identifying hormone antagonists and agonists” (Baylor College of Medicine, priority 1995, dated 1998)
